Each structure is given as a SMILES string.

One test concerns Fibroblast cells. In words: Change in the number of UVB-aged fibroblast cells, SA-β-gal staining. It is filed as cell-based, human.
The next test concerns pigment-forming cells. In words: Change in morphology and cell number of UVB-aged pigment-forming cells, SA-β-gal staining. It is filed as cell-based, human. On the procedure: Subsequently, the cells were treated with a compound represented by Chemical Formula E (Sigma-Aldrich Co., Ltd.).

Take `O=C(O)[C@]1(O)C[C@@H](O)[C@@H](O)[C@H](O)C1` [Chemical Formula E]: the number of cells result is reported as “the number of cells increased again depending on the concentration” in the test on Fibroblast cells (UVB-aged fibroblasts treated with the compound, FIGS. 4 and 5); “the number of cells increased again” with pigment-forming cells (UVB-aged pigment-forming cells treated with the compound, FIGS. 1 and 2). In addition, the “ratio of the number of the aged cells stained with SA-β-gal to the total number of cells” value is recorded as “decreased depending on the concentration” in the test on Fibroblast cells (UVB-aged fibroblasts, FIG. 6) and “decreased depending on the concentration” with pigment-forming cells (UVB-aged pigment-forming cells, FIG. 3).

These data come from patent US20230095026A1, “METHOD FOR STIMULATING AND INDUCING CHANGES IN ENVIRONMENT AROUND AGED SKIN CELLS” (AMOREPACIFIC CORPORATION, priority 2019, published 2023).
